Key:
Escherichia coli [1] = assay: Inhibitory activity against Escherichia coli X580 at 1 mg/mL concentration using Agar disk plate assay; assay type: functional
Escherichia coli [2] = assay: Inhibitory activity against Escherichia coli X161 at 1 mg/mL concentration using Agar disk plate assay; assay type: functional
Escherichia coli [3] = assay: Inhibitory activity against Escherichia coli X161M at 1 mg/mL concentration using Agar disk plate assay; assay type: functional
Proteus vulgaris [4] = assay: Inhibitory activity against Proteus vulgaris X45 at 1 mg/mL concentration using Agar disk plate assay; assay type: functional
[5] = system: Salmonella enterica subsp. enterica serovar Gallinarum; assay: Inhibitory activity against Salmonella gallinarum X142 at 1 mg/mL concentration using Agar disk plate assay; assay type: functional
Serratia marcescens [6] = assay: Inhibitory activity against Serratia marcescens X99 at 1 mg/mL concentration using Agar disk plate assay; assay type: functional
[7] = system: Acinetobacter calcoaceticus; assay: Minimum inhibitory concentration against Acinetobacter calcoaceticus AC12; assay type: functional
[8] = system: Geobacillus stearothermophilus; assay: Inhibitory activity against Bacillus Stearothermophilus C451 at 1 mg/mL concentration using Agar disk plate assay; assay type: functional
[9] = system: Geobacillus stearothermophilus; assay: Inhibitory activity against Bacillus Stearothermophilus C451 at 10 mg/mL concentration using Agar disk plate assay; assay type: functional
Bacillus subtilis [10] = assay: Inhibitory activity against Bacillus Subtilis X12 at 10 mg/mL concentration using Agar disk plate assay; assay type: functional
Bacillus subtilis [11] = assay: Inhibitory activity against Bacillus Subtilis X12 at 1 mg/mL concentration using Agar disk plate assay; assay type: functional
Bacillus subtilis [12] = assay: Inhibitory activity against Bacillus Subtilis X12M at 10 mg/mL concentration using Agar disk plate assay; assay type: functional
Bacillus subtilis [13] = assay: Inhibitory activity against Bacillus Subtilis X12M at 1 mg/mL concentration using Agar disk plate assay; assay type: functional
Citrobacter freundii = assay: Minimum inhibitory concentration against Citrobacter freundii CF17; assay type: functional
Escherichia coli [14] = assay: Minimum inhibitory concentration against Escherichia coli N10; assay type: functional
Escherichia coli [15] = assay: Minimum inhibitory concentration against Escherichia coli TEM; assay type: functional
Klebsiella aerogenes [16] = assay: Minimum inhibitory concentration against Enterobacter aerogenes C32; assay type: functional
Escherichia coli [17] = assay: Inhibitory activity against Escherichia coli X580 at 10 mg/mL concentration using Agar disk plate assay; assay type: functional
Escherichia coli [18] = assay: Inhibitory activity against Escherichia coli X161 at 10 mg/mL concentration using Agar disk plate assay; assay type: functional
Escherichia coli [19] = assay: Inhibitory activity against Escherichia coli X161M at 10 mg/mL concentration using Agar disk plate assay; assay type: functional
Enterobacter cloacae [20] = assay: Minimum inhibitory concentration against Enterobacter cloacae 265A; assay type: functional
Enterobacter cloacae [21] = assay: Minimum inhibitory concentration against Enterobacter cloacae EB5; assay type: functional
Haemophilus influenzae [22] = assay: Minimum inhibitory concentration against Haemophilus influenza 76; assay type: functional
Haemophilus influenzae [23] = assay: Minimum inhibitory concentration against Haemophilus influenza C.L; assay type: functional
Klebsiella pneumoniae [24] = assay: Minimum inhibitory concentration against Klebsiella pneumoniae KAE; assay type: functional
Klebsiella pneumoniae [25] = assay: Minimum inhibitory concentration against Klebsiella pneumoniae X26; assay type: functional
Klebsiella pneumoniae [26] = assay: Minimum inhibitory concentration against Klebsiella pneumoniae X68; assay type: functional
Morganella morganii = assay: Minimum inhibitory concentration against Proteus morganii PR15; assay type: functional
Pseudomonas aeruginosa [27] = assay: Minimum inhibitory concentration against Pseudomonas aeruginosa (4 strains); assay type: functional
Proteus vulgaris [28] = assay: Inhibitory activity against Proteus vulgaris X45 at 10 mg/mL concentration using Agar disk plate assay; assay type: functional
Pseudomonas aeruginosa [29] = assay: Inhibitory activity against Pseudomonas aeruginosa X48 at 10 mg/mL concentration using Agar disk plate assay; assay type: functional
Ralstonia solanacearum [30] = assay: Inhibitory activity against Pseudomonas solanacearum X185 at 10 mg/mL concentration using Agar disk plate assay; assay type: functional
Ralstonia solanacearum [31] = assay: Inhibitory activity against Pseudomonas solanacearum X185 at 1 mg/mL concentration using Agar disk plate assay; assay type: functional
Proteus inconstans = assay: Minimum inhibitory concentration against Proteus inconstans PR33; assay type: functional; settings: Providencia alcalifaciens
Providencia rettgeri = assay: Minimum inhibitory concentration against Proteus rettgeri C24; assay type: functional
Salmonella typhi [32] = assay: Minimum inhibitory concentration against Salmonella typhi 1335; assay type: functional, Salmonella enterica subsp. enterica serovar Typhi; settings: Salmonella enterica
Salmonella typhi [33] = assay: Minimum inhibitory concentration against Salmonella typhi X514; assay type: functional, Salmonella enterica subsp. enterica serovar Typhi; settings: Salmonella enterica
Micrococcus luteus [34] = assay: Inhibitory activity against Sarcina lutea X186 at 10 mg/mL concentration using Agar disk plate assay; assay type: functional
[35] = system: Salmonella enterica subsp. enterica serovar Gallinarum; assay: Inhibitory activity against Salmonella gallinarum X142 at 10 mg/mL concentration using Agar disk plate assay; assay type: functional
Serratia marcescens [36] = assay: Minimum inhibitory concentration against Serratia marcescens SE3; assay type: functional
Micrococcus luteus [37] = assay: Inhibitory activity against Sarcina lutea X186 at 1 mg/mL concentration using Agar disk plate assay; assay type: functional
Staphylococcus aureus [38] = assay: Inhibitory activity against Staphylococcus aureus X1 at 10 mg/mL concentration using Agar disk plate assay; assay type: functional
Serratia marcescens [39] = assay: Inhibitory activity against Serratia marcescens X99 at 10 mg/mL concentration using Agar disk plate assay; assay type: functional
[40] = system: Staphylococcus epidermidis; assay: Minimum inhibitory concentration against Staphylococcus epidermidis (2 strains); assay type: functional
Streptococcus pyogenes = assay: Minimum inhibitory concentration against Streptococcus pyogenes C203; assay type: functional
Streptococcus pneumoniae = assay: Minimum inhibitory concentration against Streptococcus pneumoniae Park I; assay type: functional
Streptococcus = assay: Minimum inhibitory concentration against Streptococcus sp. Group D (2 strains); assay type: functional
Staphylococcus aureus [41] = assay: Minimum inhibitory concentration against Staphylococcus aureus (4 strains); assay type: functional
Klebsiella aerogenes [42] = assay: Minimum inhibitory concentration against Enterobacter aerogenes EB 17; assay type: functional
Escherichia coli [43] = assay: Minimum inhibitory concentration against Escherichia coli EC14; assay type: functional
Serratia marcescens [44] = assay: Minimum inhibitory concentration against Serratia marcescens X99; assay type: functional

With `CO/N=C(/C(=O)N[C@@H]1C(=O)N(O[C@H](OC(C)=O)C(=O)[O-])[C@H]1C)c1csc(N)n1.[K+]` the Zone of inhibition (Escherichia coli [1]) was 38 mm, the Zone of inhibition (Escherichia coli [2]) was 26 mm and the Zone of inhibition (Escherichia coli [3]) was 28 mm. The Zone of inhibition (Proteus vulgaris [4]) was 25 mm, the Zone of inhibition [5] was 17 mm and the Zone of inhibition (Serratia marcescens [6]) was 18 mm.

`CO/N=C(\C(=O)N[C@@H]1C(=O)N(O[C@H](OC(C)=O)C(=O)[O-])[C@H]1C)c1csc(N)n1.[K+]` gave a Zone of inhibition (Escherichia coli [1]) of 46 mm, a Zone of inhibition (Escherichia coli [2]) of 17 mm and a Zone of inhibition (Escherichia coli [3]) of 30 mm. It also gave a Zone of inhibition (Proteus vulgaris [4]) of 28 mm, a Zone of inhibition [5] of 25 mm and a Zone of inhibition (Serratia marcescens [6]) of 24 mm.

With `CO/N=C(/C(=O)N[C@@H]1C(=O)N(S(=O)(=O)[O-])[C@H]1C)c1csc(N)n1.[K+]` the MIC [7] was 4 µg/mL, the Zone of inhibition [8] was 25 mm and the Zone of inhibition [9] was 30 mm. For the same compound, the Zone of inhibition (Bacillus subtilis [10]) was 23 mm, the Zone of inhibition (Bacillus subtilis [11]) was 15 mm and the Zone of inhibition (Bacillus subtilis [12]) was 30 mm. For the same compound, the Zone of inhibition (Bacillus subtilis [13]) was 16 mm, the MIC (Citrobacter freundii) was 0.25 µg/mL and the MIC (Escherichia coli [14]) was 0.125 µg/mL. It also gave an MIC (Escherichia coli [15]) of 0.125 µg/mL, an MIC (Klebsiella aerogenes [16]) of 0.125 µg/mL and a Zone of inhibition (Escherichia coli [17]) of 66 mm. It also gave a Zone of inhibition (Escherichia coli [1]) of 54 mm, a Zone of inhibition (Escherichia coli [18]) of 40 mm and a Zone of inhibition (Escherichia coli [2]) of 40 mm. The Zone of inhibition (Escherichia coli [19]) was 54 mm, the Zone of inhibition (Escherichia coli [3]) was 40 mm and the MIC (Enterobacter cloacae [20]) was greater than 64 µg/mL. The MIC (Enterobacter cloacae [21]) was 0.125 µg/mL, the MIC (Haemophilus influenzae [22]) was 0.25 µg/mL and the MIC (Haemophilus influenzae [23]) was 0.5 µg/mL. The MIC (Klebsiella pneumoniae [24]) was greater than 64 µg/mL, the MIC (Klebsiella pneumoniae [25]) was 0.06 µg/mL and the MIC (Klebsiella pneumoniae [26]) was 0.125 µg/mL. The MIC (Morganella morganii) was 0.25 µg/mL, the MIC (Pseudomonas aeruginosa [27]) was greater than 64 µg/mL and the Zone of inhibition (Proteus vulgaris [28]) was 46 mm. It also gave a Zone of inhibition (Proteus vulgaris [4]) of 40 mm, a Zone of inhibition (Pseudomonas aeruginosa [29]) of 25 mm and a Zone of inhibition (Ralstonia solanacearum [30]) of 40 mm. The Zone of inhibition (Ralstonia solanacearum [31]) was 29 mm, the MIC (Proteus inconstans) was 0.03 µg/mL and the MIC (Providencia rettgeri) was 0.03 µg/mL. For the same compound, the MIC (Salmonella typhi [32]) was 0.125 µg/mL, the MIC (Salmonella typhi [33]) was 0.06 µg/mL and the Zone of inhibition (Micrococcus luteus [34]) was 27 mm. It also gave a Zone of inhibition [35] of 36 mm, a Zone of inhibition [5] of 48 mm and an MIC (Serratia marcescens [36]) of 0.25 µg/mL. For the same compound, the Zone of inhibition (Micrococcus luteus [37]) was 25 mm, the Zone of inhibition (Staphylococcus aureus [38]) was 22 mm and the Zone of inhibition (Serratia marcescens [39]) was 40 mm. The MIC [40] was greater than 64 µg/mL, the Zone of inhibition (Serratia marcescens [6]) was 33 mm and the MIC (Streptococcus pyogenes) was 4 µg/mL. For the same compound, the MIC (Streptococcus pneumoniae) was 4 µg/mL, the MIC (Streptococcus) was greater than 64 µg/mL and the MIC (Staphylococcus aureus [41]) was greater than 64 µg/mL. The MIC (Klebsiella aerogenes [42]) was 0.125 µg/mL, the MIC (Escherichia coli [43]) was 0.06 µg/mL and the MIC (Serratia marcescens [44]) was 0.25 µg/mL.

With `CO/N=C(/C(=O)N[C@H]1CN(OCC(=O)[O-])C1=O)c1csc(N)n1.[K+]` the MIC [7] was greater than 64 µg/mL, the Zone of inhibition [9] was 24 mm and the Zone of inhibition (Bacillus subtilis [12]) was 13 mm. It also gave an MIC (Citrobacter freundii) of 16 µg/mL, an MIC (Escherichia coli [14]) of 8 µg/mL and an MIC (Escherichia coli [15]) of 32 µg/mL. For the same compound, the MIC (Klebsiella aerogenes [16]) was 8 µg/mL, the Zone of inhibition (Escherichia coli [17]) was 37 mm and the Zone of inhibition (Escherichia coli [18]) was 20 mm. For the same compound, the Zone of inhibition (Escherichia coli [19]) was 19 mm, the MIC (Enterobacter cloacae [20]) was greater than 64 µg/mL and the MIC (Enterobacter cloacae [21]) was 16 µg/mL. It also gave an MIC (Haemophilus influenzae [22]) of 16 µg/mL, an MIC (Haemophilus influenzae [23]) of 16 µg/mL and an MIC (Klebsiella pneumoniae [24]) greater than 64 µg/mL. For the same compound, the MIC (Klebsiella pneumoniae [25]) was 8 µg/mL, the MIC (Klebsiella pneumoniae [26]) was 8 µg/mL and the MIC (Morganella morganii) was 32 µg/mL. It also gave an MIC (Pseudomonas aeruginosa [27]) greater than 64 µg/mL, a Zone of inhibition (Proteus vulgaris [28]) of 21 mm and a Zone of inhibition (Ralstonia solanacearum [30]) of 16 mm. The MIC (Proteus inconstans) was 2 µg/mL, the MIC (Providencia rettgeri) was 2 µg/mL and the MIC (Salmonella typhi [32]) was 8 µg/mL. It also gave an MIC (Salmonella typhi [33]) of 4 µg/mL, a Zone of inhibition (Micrococcus luteus [34]) of 21 mm and a Zone of inhibition [35] of 22 mm. It also gave an MIC (Serratia marcescens [36]) of 16 µg/mL, a Zone of inhibition (Serratia marcescens [39]) of 16 mm and an MIC [40] greater than 64 µg/mL. The MIC (Streptococcus pyogenes) was 16 µg/mL, the MIC (Streptococcus pneumoniae) was 32 µg/mL and the MIC (Streptococcus) was greater than 64 µg/mL. The MIC (Staphylococcus aureus [41]) was greater than 64 µg/mL, the MIC (Klebsiella aerogenes [42]) was 8 µg/mL and the MIC (Escherichia coli [43]) was 4 µg/mL. The MIC (Serratia marcescens [44]) was 16 µg/mL.

From ChEMBL document CHEMBL1122817, “Synthesis and biological activity of substituted [[3(S)-(acylamino)-2-oxo-1-azetidinyl]oxy]acetic acids. A new class of heteroatom-activated beta-lactam antibiotics” (1985)
